The record followed here is paper PMC12072338, “Allosteric Modulation of GCase Enhances Lysosomal Activity and Reduces ER Stress in GCase-Related Disorders” (International Journal of Molecular Sciences, 2025).

This experiment addresses T1, rhGCase (Cerezyme) (Homo sapiens, UniProt P04062, R534H).
T1 construct: Human full-length wild-type GCase protein (Cerezyme®, Genzyme, Naarden, Netherlands); purchased Genzyme, Naarden, Netherlands
T1 sequence (P04062 40-536 R534H): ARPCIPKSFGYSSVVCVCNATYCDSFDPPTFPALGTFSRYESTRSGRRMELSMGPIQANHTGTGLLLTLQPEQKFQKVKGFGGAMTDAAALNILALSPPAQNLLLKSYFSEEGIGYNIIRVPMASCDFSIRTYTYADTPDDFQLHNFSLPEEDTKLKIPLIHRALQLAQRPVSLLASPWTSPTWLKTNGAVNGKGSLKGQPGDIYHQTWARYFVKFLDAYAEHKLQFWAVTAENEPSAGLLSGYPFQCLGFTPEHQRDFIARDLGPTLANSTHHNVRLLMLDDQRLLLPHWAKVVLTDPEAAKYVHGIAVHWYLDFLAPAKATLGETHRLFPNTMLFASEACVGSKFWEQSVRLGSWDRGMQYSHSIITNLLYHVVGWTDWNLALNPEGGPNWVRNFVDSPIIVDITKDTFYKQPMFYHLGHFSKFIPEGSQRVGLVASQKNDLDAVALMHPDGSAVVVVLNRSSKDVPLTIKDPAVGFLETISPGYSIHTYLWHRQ
In words: nanoDSF thermal stability of rhGCase. It counts as binding. On the procedure:
The stabilizing effects of GT-02287 and GT-02329 on GCase were assessed by nanoDSF. rhGCase protein (Cerezyme®, Genzyme, Naarden, Netherlands) was prepared at 0.1 mg/mL in two buffers: buffer 1 (10 mmol/L Citric Acid, 20 mmol/L Na2HPO4, pH 7.0) and buffer 2 (50 mmol/L Histidine, 150 mmol/L NaCl, pH 5.0). DMSO was added to a final concentration of 2%.
Samples were loaded into nanoDSF standard capillaries and analyzed using the Prometheus NT.48 instrument (NanoTemper Technologies, Munich, Germany). The thermal unfolding of GCase was monitored by tracking intrinsic fluorescence changes in tryptophan and tyrosine residues as the temperature increased from 20 °C to 95 °C at 2 °C/min. Each condition was run in duplicate at 25 μM and 100 μM compound concentrations. Melting temperatures (Tm) were determined from the fluorescence curves, and ΔTm shifts between compound-treated and control samples were calculated. The significance of Tm shifts was assessed using two criteria: an absolute ΔTm shift greater than 1.0 °C (instrumental criterion) and an absolute ΔTm standard deviation of 0.2 °C or less (statistical criterion).

Like-named read-outs stand apart in the source and are kept apart here.

Turning to `OC[C@H]1CNC[C@@H](O)[C@@H]1O` [IFG, isofagomine], the “Effect on protein thermal stability at pH 5.0” value (pH 5.0) is given as “demonstrated stabilization”. Further, the ΔTm at 100 µM came out at 3 °C (pH 5.0, 100 µM compound, mean ± SD of two experiments, read-out: ΔTm at pH 5.0 and 100 µM); 11.5 °C (pH 7.0, 100 µM compound, mean ± SD of two experiments, read-out: ΔTm at pH 7.0 and 100 µM). For the same compound, the ΔTm at 25 µM (pH 7.0, 25 µM compound, mean ± SD of two experiments) worked out at 9.9 ± 0.2 °C.
